According to paper PMC5951806, “Rapid labelling and covalent inhibition of intracellular native proteins using ligand-directed N-acyl-N-alkyl sulfonamide” (Nature Communications, 2018):

How the values were obtained:
[1] = biological target: glyceraldehyde-3-phosphate dehydrogenase (GAPDH) (Homo sapiens, UniProt P04406); experiment: TMT LC-MSMS of 11-labelled proteins; format: cell-based
[2] = biological target: T1, Folate transporter 1 (SLC19A1) (Homo sapiens, UniProt P41440); experiment: TMT LC-MSMS of 11-labelled proteins; format: cell-based
T1 sequence (P41440 1-591): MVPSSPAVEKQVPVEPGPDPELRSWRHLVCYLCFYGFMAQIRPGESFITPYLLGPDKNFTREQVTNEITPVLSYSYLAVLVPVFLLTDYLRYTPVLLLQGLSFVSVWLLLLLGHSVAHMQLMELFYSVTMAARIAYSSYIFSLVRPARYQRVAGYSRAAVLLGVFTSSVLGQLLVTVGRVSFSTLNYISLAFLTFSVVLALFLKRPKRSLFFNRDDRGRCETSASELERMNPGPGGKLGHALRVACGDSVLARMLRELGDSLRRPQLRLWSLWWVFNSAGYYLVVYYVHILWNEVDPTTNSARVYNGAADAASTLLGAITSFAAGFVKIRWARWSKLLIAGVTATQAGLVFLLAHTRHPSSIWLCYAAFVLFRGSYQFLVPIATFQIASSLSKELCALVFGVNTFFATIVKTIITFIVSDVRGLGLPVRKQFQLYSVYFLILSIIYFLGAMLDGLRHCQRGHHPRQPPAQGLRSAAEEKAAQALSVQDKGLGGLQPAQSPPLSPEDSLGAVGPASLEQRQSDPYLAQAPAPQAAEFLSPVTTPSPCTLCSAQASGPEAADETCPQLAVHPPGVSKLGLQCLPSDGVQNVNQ

[3] = sheet Merged, SKBR3 cells, 11 0.5 µM 3 h vs DMSO
[4] = sheet Merged, SKBR3 cells, 11 0.5 µM 3 h vs with PU-H71 10 µM

glyceraldehyde-3-phosphate dehydrogenase (GAPDH), sequence (P04406 whole entry): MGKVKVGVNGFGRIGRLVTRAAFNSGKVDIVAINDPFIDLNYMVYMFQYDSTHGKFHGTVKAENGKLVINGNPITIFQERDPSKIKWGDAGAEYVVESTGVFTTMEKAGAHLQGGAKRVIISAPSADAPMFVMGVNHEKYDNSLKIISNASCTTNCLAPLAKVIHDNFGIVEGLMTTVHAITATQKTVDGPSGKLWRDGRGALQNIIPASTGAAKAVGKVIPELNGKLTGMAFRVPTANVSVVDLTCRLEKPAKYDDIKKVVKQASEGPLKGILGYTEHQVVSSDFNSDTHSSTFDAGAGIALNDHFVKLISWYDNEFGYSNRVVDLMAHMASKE

Abundance Ratio: (11) / (11 with PU-H71) ([1]; Exp3, GAPDH): 0.73 | Abundance Ratio: (11) / (DMSO) ([1]; Exp3, GAPDH): 1.944 | Abundances (Grouped): 11 ([1]; Exp3, GAPDH): 248.2 | Abundances (Grouped): 11 with PU-H71 ([1]; Exp3, GAPDH): 340 | Abundance Ratio: (11) / (DMSO) ([1]; sheet Exp1, SKBR3 cells, 11 0.5 µM 3 h vs DMSO): 2.11 | Abundance Ratio: (11) / (11 with PU-H71) ([1]; sheet Exp1, SKBR3 cells, 11 0.5 µM 3 h vs with PU-H71 10 µM): 0.674 | Abundance Ratio: (11) / (11 with PU-H71) ([1]; sheet Exp2, GAPDH): 0.789 | Abundance Ratio: (11) / (DMSO) ([1]; sheet Exp2, GAPDH): 3.189 | Abundances (Grouped): 11 ([1]; sheet Exp2, GAPDH): 133 | Abundances (Grouped): 11 with PU-H71 ([1]; sheet Exp2, GAPDH): 168.6 | Abundance Ratio: (11) / (DMSO) [1, 3]: 2.267 | Abundance Ratio: (11) / (11 with PU-H71) [1, 4]: 0.732 | Abundance Ratio: (11) / (11 with PU-H71) ([2]; Exp3, SLC19A1): 0.875 | Abundance Ratio: (11) / (DMSO) ([2]; Exp3, SLC19A1): 5.164 | Abundances (Grouped): 11 ([2]; Exp3, SLC19A1): 56.8 | Abundances (Grouped): 11 with PU-H71 ([2]; Exp3, SLC19A1): 64.9 | Abundance Ratio: (11) / (11 with PU-H71) ([2]; sheet Exp2, SLC19A1): 1.054 | Abundance Ratio: (11) / (DMSO) ([2]; sheet Exp2, SLC19A1): 3.79 | Abundances (Grouped): 11 ([2]; sheet Exp2, SLC19A1): 111.8 | Abundances (Grouped): 11 with PU-H71 ([2]; sheet Exp2, SLC19A1): 106.1 | Abundance Ratio: (11) / (DMSO) [2, 3]: 4.595 | Abundance Ratio: (11) / (11 with PU-H71) [2, 4]: 0.985
SMILES: CC(=O)Oc1ccc2c(c1)Oc1cc(OC(C)=O)ccc1C21OC(=O)c2cc(C(=O)NCCOCCOCCNC(=O)CCCC(=O)N(CC#N)S(=O)(=O)c3ccc(C(=O)NCCCn4c(Sc5cc6c(cc5I)OCO6)nc5c(N)ncnc54)cc3)ccc21 [compound 11]
